In patent US20100248390A1, “COMPOSITIONS AND METHODS FOR IDENTIFYING LIGANDS OF ODORANT RECEPTORS” (DUKE UNIVERSITY, priority 2009, published 2010):
Values joined by “and” are separate entries in the source; they are usually repeats but may differ in a detail not shown here. Equal values may be shown once.

System: mouse odorant receptors (ORs)
Test: CRE-luciferase assay of odorant receptor activation (Dual-Glo, Hana3A cells, RTP1S), dose-response EC50
Format: cell-based
Settings: for log EC50, MOR184-1: receptor MOR184-1; for log EC50, MOR189-1 / log EC50 (Table 4 value), MOR189-1: receptor MOR189-1; for log EC50, MOR203-1 / log EC50 (Table 4 value), MOR203-1 / log EC50 of odorant at MOR203-1 (0 = no response): receptor MOR203-1; for log EC50, MOR138-1: receptor MOR138-1; for log EC50 (Table 4 value), MOR162-1: receptor MOR162-1; for log EC50 (Table 4 value), MOR170-1: receptor MOR170-1; for log EC50 (Table 4 value), MOR185-1: receptor MOR185-1; for log EC50 (Table 4 value), MOR207-1: receptor MOR207-1; for log EC50 (Table 4 value), MOR222-1: receptor MOR222-1; for log EC50 (Table 4 value), MOR273-1: receptor MOR273-1; for log EC50 (Table 4 value), MOR161-1: receptor MOR161-1; for log EC50 of odorant at MOR260-1 (0 = no response): receptor MOR260-1; for log EC50 of odorant at MOR5-1 (0 = no response): receptor MOR5-1; for log EC50 of odorant at MOR30-1 (0 = no response): receptor MOR30-1; for log EC50 of odorant at MOR33-1 (0 = no response): receptor MOR33-1; for log EC50 of odorant at MOR40-1 (0 = no response): receptor MOR40-1
[1] = receptor MOR41-1, 0 = no response
[2] = receptor MOR139-1, 0 = no response
[3] = receptor MOR271-1, 0 = no response
[4] = receptor MOR261-1, 0 = no response
[5] = receptor MOR272-1, 0 = no response

C=C(C)C1CC=C(C)C(=O)C1 (single isomer, unassigned; (-)) [(−)-Carvone]
log EC50, MOR41-1 [1]: −4.257 | log EC50, MOR139-1 [2]: −3.861 | log EC50, MOR184-1 (0 = no response): −3.92 | log EC50, MOR189-1 (0 = no response): −4.147 | log EC50, MOR203-1 (0 = no response): −3.938 | log EC50, MOR271-1 [3]: −4.14

CC(C)=CCCC(C)CCO (single isomer, unassigned; (-)) [(−)-b-C ? inedol]
log EC50, MOR138-1 (0 = no response): −3.347 | log EC50, MOR203-1 (0 = no response): −3.147

CCCCCCCCCCO [1-Decanol]
log EC50, MOR203-1 (0 = no response): −3.299 | log EC50, MOR261-1 [4]: −3.273

CCCCCCCO [1-Heptanol]
log EC50, MOR41-1 [1]: −3.68 | log EC50, MOR203-1 (0 = no response): −3.387 | log EC50, MOR261-1 [4]: −3.382 | log EC50, MOR271-1 [3]: −3.47 | log EC50, MOR272-1 [5]: −4.181

O=C1CCOc2ccccc21 [4-Chromanone]
log EC50 (Table 4 value), MOR41-1 (receptor MOR41-1): −4.747 | log EC50 (Table 4 value), MOR129-1 (receptor MOR129-1): −3.785 | log EC50 (Table 4 value), MOR139-1 (receptor MOR139-1): −4.028 | log EC50 (Table 4 value), MOR162-1: −4.225 | log EC50 (Table 4 value), MOR170-1: −4.209 | log EC50 (Table 4 value), MOR185-1: −3.833 | log EC50 (Table 4 value), MOR189-1: −3.684 | log EC50 (Table 4 value), MOR207-1: −3.724 | log EC50 (Table 4 value), MOR222-1: −3.618 | log EC50 (Table 4 value), MOR271-1 (receptor MOR271-1): −4.047 | log EC50 (Table 4 value), MOR272-1 (receptor MOR272-1): −4.043 | log EC50 (Table 4 value), MOR273-1: −4.201 | log EC50 (Table 4 value), MOR277-1 (receptor MOR277-1): −3.415

C=C(C)[C@H]1CC=C(C)C(=O)C1 [(+)-Carvone]
log EC50, MOR41-1 [1]: −4.644 | log EC50, MOR129-1 (receptor MOR129-1, 0 = no response): −4.145 | log EC50, MOR139-1 [2]: −4.032 | log EC50, MOR184-1 (0 = no response): −3.812 | log EC50, MOR189-1 (0 = no response): −4.302 | log EC50, MOR203-1 (0 = no response): −3.814 | log EC50, MOR250-1 (receptor MOR250-1, 0 = no response): −3.938 | log EC50, MOR271-1 [3]: −4.098 | log EC50, MOR272-1 [5]: −4.564

C=C(C)[C@@H]1CC[C@@H](C)C(=O)C1 [(+)-Dihydrocarvone]
log EC50, MOR41-1 [1]: −4.301 | log EC50, MOR138-1 (0 = no response): −3.498 | log EC50, MOR139-1 [2]: −3.637 | log EC50, MOR182-1 (receptor MOR182-1, 0 = no response): −3.406 | log EC50, MOR184-1 (0 = no response): −3.55 | log EC50, MOR189-1 (0 = no response): −3.976 | log EC50, MOR203-1 (0 = no response): −4.241 | log EC50, MOR271-1 [3]: −3.987 | log EC50, MOR272-1 [5]: −4.273

CC(=O)c1ccccc1 [Acetophenone]
log EC50 (Table 4 value), MOR41-1 (receptor MOR41-1): −5.039 | log EC50 (Table 4 value), MOR105-1 (receptor MOR105-1): −3.429 | log EC50 (Table 4 value), MOR106-1 (receptor MOR106-1): −3.854 | log EC50 (Table 4 value), MOR129-1 (receptor MOR129-1): −5.484 | log EC50 (Table 4 value), MOR139-1 (receptor MOR139-1): −3.935 | log EC50 (Table 4 value), MOR161-1: −3.825 | log EC50 (Table 4 value), MOR162-1: −4.778 | log EC50 (Table 4 value), MOR170-1: −3.9 | log EC50 (Table 4 value), MOR185-1: −4.016 | log EC50 (Table 4 value), MOR189-1: −3.372 | log EC50 (Table 4 value), MOR207-1: −3.608 | log EC50 (Table 4 value), MOR250-1 (receptor MOR250-1): −3.975 | log EC50 (Table 4 value), MOR258-1 (receptor MOR258-1): −3.358 | log EC50 (Table 4 value), MOR271-1 (receptor MOR271-1): −4.05 | log EC50 (Table 4 value), MOR272-1 (receptor MOR272-1): −3.922

C=CCOC(=O)Cc1ccccc1 [Allyl phenylacetate]
log EC50 (Table 4 value), MOR1-1 (receptor MOR1-1): −3.581 | log EC50 (Table 4 value), MOR2-1 (receptor MOR2-1): −3.253 | log EC50 (Table 4 value), MOR139-1 (receptor MOR139-1): −3.625 | log EC50 (Table 4 value), MOR203-1: −3.401 | log EC50 (Table 4 value), MOR222-1: −3.369 | log EC50 (Table 4 value), MOR223-1 (receptor MOR223-1): −4.178 | log EC50 (Table 4 value), MOR236-1 (receptor MOR236-1): −4.052 | log EC50 (Table 4 value), MOR258-17 (receptor MOR258-17): −3.842 | log EC50 (Table 4 value), MOR261-1 (receptor MOR261-1): −3.425 | log EC50 (Table 4 value), MOR268-1 (receptor MOR268-1): −3.434 | log EC50 (Table 4 value), MOR271-1 (receptor MOR271-1): −4.23 | log EC50 (Table 4 value), MOR272-1 (receptor MOR272-1): −4.824

CC(=O)OCc1ccccc1 [Benzyl acetate]
log EC50 (Table 4 value), MOR41-1 (receptor MOR41-1): −3.972 | log EC50 (Table 4 value), MOR139-1 (receptor MOR139-1): −3.729 | log EC50 (Table 4 value), MOR203-1: −3.531 | log EC50 (Table 4 value), MOR223-1 (receptor MOR223-1): −3.841 | log EC50 (Table 4 value), MOR261-1 (receptor MOR261-1): −3.352 | log EC50 (Table 4 value), MOR271-1 (receptor MOR271-1): −5.379 | log EC50 (Table 4 value), MOR272-1 (receptor MOR272-1): −4.948

O=c1ccc2ccccc2o1 [Coumarin]
log EC50 (Table 4 value), MOR41-1 (receptor MOR41-1): −4.785 | log EC50 (Table 4 value), MOR106-1 (receptor MOR106-1): −3.919 | log EC50 (Table 4 value), MOR129-1 (receptor MOR129-1): −4.04 | log EC50 (Table 4 value), MOR139-1 (receptor MOR139-1): −3.749 | log EC50 (Table 4 value), MOR161-1: −3.139 | log EC50 (Table 4 value), MOR162-1: −4.483 | log EC50 (Table 4 value), MOR170-1: −3.989 | log EC50 (Table 4 value), MOR185-1: −4.042 | log EC50 (Table 4 value), MOR189-1: −3.215 | log EC50 (Table 4 value), MOR207-1: −3.905 | log EC50 (Table 4 value), MOR250-1 (receptor MOR250-1): −3.855 | log EC50 (Table 4 value), MOR258-1 (receptor MOR258-1): −4.296 | log EC50 (Table 4 value), MOR259-1 (receptor MOR259-1): −3.834

CCCCCC1=C(C)CCC1=O [Dihydroiasmone]
log EC50 (Table 4 value), MOR41-1 (receptor MOR41-1): −3.766 | log EC50 (Table 4 value), MOR139-1 (receptor MOR139-1): −4.308 | log EC50 (Table 4 value), MOR189-1: −3.945 | log EC50 (Table 4 value), MOR205-1 (receptor MOR205-1): −4.699 | log EC50 (Table 4 value), MOR271-1 (receptor MOR271-1): −4.126 | log EC50 (Table 4 value), MOR272-1 (receptor MOR272-1): −4.447 | log EC50 (Table 4 value), MOR273-1: −4.441

CC(C)=CCC/C(C)=C/CO [Getaniol]
log EC50 (Table 4 value), MOR139-1 (receptor MOR139-1): −3.939 | log EC50 (Table 4 value), MOR203-1: −3.622 | log EC50 (Table 4 value), MOR238-1 (receptor MOR238-1): −3.843 | log EC50 (Table 4 value), MOR268-1 (receptor MOR268-1): −3.897

CCCCCCCCCS [Nonanethiol]
log EC50 of odorant at MOR203-1 (0 = no response): −3.528 | log EC50 of odorant at MOR260-1 (0 = no response): −4.488 | log EC50 of odorant at MOR261-1 (0 = no response) (receptor MOR261-1): −3.376 | log EC50 of odorant at MOR268-1 (0 = no response) (receptor MOR268-1): −3.589

CCCCCCCCC(=O)O [Nonanoic acid]
log EC50 of odorant at MOR5-1 (0 = no response): −4.029 | log EC50 of odorant at MOR18-1 (0 = no response) (receptor MOR18-1): −4.077 | log EC50 of odorant at MOR30-1 (0 = no response): −4.396 | log EC50 of odorant at MOR33-1 (0 = no response): −4.606 | log EC50 of odorant at MOR37-1 (0 = no response) (receptor MOR37-1): −3.9 | log EC50 of odorant at MOR40-1 (0 = no response): −4.128 | log EC50 of odorant at MOR203-1 (0 = no response): −3.478 | log EC50 of odorant at MOR260-1 (0 = no response): −4.108

CCCCCCCCS [Octanethiol]
log EC50 of odorant at MOR203-1 (0 = no response): −3.356

CCCCCCCC(=O)O [Octanoic Acid]
log EC50 of odorant at MOR5-1 (0 = no response): −3.711 | log EC50 of odorant at MOR23-1 (0 = no response) (receptor MOR23-1): −5.053 | log EC50 of odorant at MOR25-1 (0 = no response) (receptor MOR25-1): −3.689 | log EC50 of odorant at MOR30-1 (0 = no response): −3.68 | log EC50 of odorant at MOR33-1 (0 = no response): −4.212 | log EC50 of odorant at MOR40-1 (0 = no response): −3.617

CC(=O)Oc1ccccc1 [Phenyl acetate]
log EC50 of odorant at MOR41-1 (0 = no response) (receptor MOR41-1): −4.143 | log EC50 of odorant at MOR106-1 (0 = no response) (receptor MOR106-1): −3.874 | log EC50 of odorant at MOR139-1 (0 = no response) (receptor MOR139-1): −3.421 and −3.385 | log EC50 of odorant at MOR223-1 (0 = no response) (receptor MOR223-1): −3.487 | log EC50 of odorant at MOR250-1 (0 = no response) (receptor MOR250-1): −3.545 | log EC50 of odorant at MOR258-1 (0 = no response) (receptor MOR258-1): −3.099 | log EC50 of odorant at MOR271-1 (0 = no response) (receptor MOR271-1): −5.033 | log EC50 of odorant at MOR272-1 (0 = no response) (receptor MOR272-1): −5.098
